In ChEMBL document CHEMBL1201862, “PubChem BioAssay data set” (2004):
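Protocol summary: plate cells (96-well), add compound at 5 concentrations, incubate 48 h, interpolate endpoints linearly. GI50 is the concentration that inhibits growth by half.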 The source made the active and inactive calls. No stated cut-off is given here; in the data, active = GI50 up to about 1.1 µM and inactive = higher.

How the values were obtained:
Test in all cases: inhibition of tumour cell growth, NCI panel, 48 h
SN12C = test system: SN12C
UACC-257 = test system: UACC-257
COLO 205 = test system: COLO 205
SK-MEL-5 = test system: SK-MEL-5
SNB-78 = test system: SNB-78
A498 = test system: A498
SW-620 = test system: SW-620
EKVX = test system: EKVX
NCI-H460 = test system: NCI-H460
SNB-75 = test system: SNB-75
LOX IMVI = test system: LOX IMVI
NCI-H522 = test system: NCI-H522
CCRF-CEM = test system: CCRF-CEM
U-251 = test system: U-251
HCT-116 = test system: HCT-116
SK-OV-3 = test system: SK-OV-3
Malme-3M = test system: Malme-3M
CAKI-1 = test system: CAKI-1
MDA-MB-435 = test system: MDA-MB-435
BT-549 = test system: BT-549

SMILES	GI50 (SN12C)	GI50 (UACC-257)	GI50 (COLO 205)	GI50 (SK-MEL-5)	GI50 (SNB-78)	GI50 (A498)	GI50 (SW-620)	GI50 (EKVX)	GI50 (NCI-H460)	GI50 (SNB-75)	GI50 (LOX IMVI)	GI50 (NCI-H522)	GI50 (CCRF-CEM)	GI50 (U-251)	GI50 (HCT-116)	GI50 (SK-OV-3)	GI50 (Malme-3M)	GI50 (CAKI-1)	GI50 (MDA-MB-435)	GI50 (BT-549)
COc1ccc(/C=C/C(=O)c2cc(C(=O)O)c(OC)cc2OC)cc1OC	> 100 µM (inactive)	> 100 µM (inactive)	> 100 µM (inactive)	> 100 µM (inactive)	> 100 µM (inactive)	> 100 µM (inactive)	> 100 µM (inactive)	> 100 µM (inactive)	> 100 µM (inactive)	> 100 µM (inactive)	> 100 µM (inactive)	> 100 µM (inactive)	> 100 µM (inactive)	> 100 µM (inactive)	> 100 µM (inactive)	–	–	–	–	–
O=[PH](O)c1cc2ccccc2c2ccccc12	> 100 µM (inactive)	–	> 100 µM (inactive)	> 100 µM (inactive)	> 100 µM (inactive)	–	> 100 µM (inactive)	> 100 µM (inactive)	> 100 µM (inactive)	> 100 µM (inactive)	> 100 µM (inactive)	> 100 µM (inactive)	> 100 µM (inactive)	> 100 µM (inactive)	> 100 µM (inactive)	> 100 µM (inactive)	–	–	–	–
O=C1C(=O)N(C(=O)c2ccc(Cl)c(Cl)c2)c2ccc(Cl)cc21	–	–	> 100 µM (inactive)	> 100 µM (inactive)	> 100 µM (inactive)	19.4 µM (inactive)	92 µM (inactive)	74 µM (inactive)	89.7 µM (inactive)	31.8 µM (inactive)	44.9 µM (inactive)	–	38.8 µM (inactive)	> 100 µM (inactive)	–	> 100 µM (inactive)	–	–	–	–
O=C(c1ccco1)N(C(=S)N1CCN(c2ccccc2)CC1)C1CCCCC1	> 100 µM (inactive)	72.4 µM (inactive)	45 µM (inactive)	56.4 µM (inactive)	> 100 µM (inactive)	–	> 100 µM (inactive)	–	76 µM (inactive)	50.5 µM (inactive)	57.3 µM (inactive)	> 100 µM (inactive)	> 100 µM (inactive)	> 100 µM (inactive)	62.8 µM (inactive)	> 100 µM (inactive)	> 100 µM (inactive)	> 100 µM (inactive)	–	–
COC(=O)c1c(C)cc2c(c1O)C1(O)C(=O)c3cc4c(c(O)c3C(=O)C1(OC)C(O)C2)C(=O)C=C(NC1OC(C)C(OC)C(O)C1OC)C4=O (centres undefined)	0.139 µM (active)	0.017 µM (active)	0.0532 µM (active)	–	0.0521 µM (active)	0.259 µM (active)	0.0416 µM (active)	0.241 µM (active)	0.0986 µM (active)	0.141 µM (active)	0.0342 µM (active)	0.0552 µM (active)	0.0189 µM (active)	0.207 µM (active)	0.0378 µM (active)	0.298 µM (active)	0.0538 µM (active)	0.225 µM (active)	–	–
C/C(=N\NC(N)=S)c1cc(C)c(C)cc1C	> 100 µM (inactive)	90.8 µM (inactive)	27.7 µM (inactive)	57 µM (inactive)	> 100 µM (inactive)	81.7 µM (inactive)	44 µM (inactive)	8.69 µM (inactive)	43.9 µM (inactive)	30.6 µM (inactive)	70.8 µM (inactive)	–	29.9 µM (inactive)	48.6 µM (inactive)	> 100 µM (inactive)	> 100 µM (inactive)	32.6 µM (inactive)	> 100 µM (inactive)	–	–
O=[N+]([O-])c1ccc(/C(Cl)=C/c2ccc(/C=C(\Cl)c3ccc([N+](=O)[O-])cc3[N+](=O)[O-])cc2)c([N+](=O)[O-])c1	> 100 µM (inactive)	> 100 µM (inactive)	> 100 µM (inactive)	> 100 µM (inactive)	> 100 µM (inactive)	> 100 µM (inactive)	> 100 µM (inactive)	> 100 µM (inactive)	> 100 µM (inactive)	> 100 µM (inactive)	> 100 µM (inactive)	> 100 µM (inactive)	–	> 100 µM (inactive)	> 100 µM (inactive)	> 100 µM (inactive)	> 100 µM (inactive)	> 100 µM (inactive)	–	–
CC(=O)OC(CC1(C)C(C)CCC23COC(=O)C2=CCCC31)c1ccoc1 (centres undefined)	19.9 µM (inactive)	24 µM (inactive)	40.4 µM (inactive)	19.5 µM (inactive)	25.4 µM (inactive)	45.3 µM (inactive)	24.9 µM (inactive)	30.5 µM (inactive)	40.4 µM (inactive)	23.3 µM (inactive)	21.3 µM (inactive)	18.5 µM (inactive)	20.2 µM (inactive)	15.8 µM (inactive)	20.5 µM (inactive)	40.8 µM (inactive)	21.8 µM (inactive)	–	–	–
Cc1oc2c(C)c3oc(=O)cc(C)c3cc2c1CN	42.5 µM (inactive)	41.3 µM (inactive)	33.1 µM (inactive)	–	53.5 µM (inactive)	41.5 µM (inactive)	19.5 µM (inactive)	42.6 µM (inactive)	27.9 µM (inactive)	33.9 µM (inactive)	16.2 µM (inactive)	42.4 µM (inactive)	41.9 µM (inactive)	23 µM (inactive)	22.8 µM (inactive)	23.7 µM (inactive)	25.2 µM (inactive)	–	–	–
COc1cc(-c2ccccc2)c(OC)cc1CCl	> 100 µM (inactive)	> 100 µM (inactive)	> 100 µM (inactive)	> 100 µM (inactive)	> 100 µM (inactive)	> 100 µM (inactive)	> 100 µM (inactive)	> 100 µM (inactive)	> 100 µM (inactive)	> 100 µM (inactive)	–	> 100 µM (inactive)	> 100 µM (inactive)	> 100 µM (inactive)	> 100 µM (inactive)	> 100 µM (inactive)	> 100 µM (inactive)	> 100 µM (inactive)	–	–
C=C1C2CC(OC(C)=O)C3(C)C(c4ccoc4)OC(=O)[C@@H](O)[C@]13OC1C[C@H](OC(C)=O)C(C)(C)[C@H](CC(=O)OC)[C@]12C (some centres undefined)	> 100 µM (inactive)	–	> 100 µM (inactive)	> 100 µM (inactive)	> 100 µM (inactive)	> 100 µM (inactive)	> 100 µM (inactive)	> 100 µM (inactive)	> 100 µM (inactive)	33.6 µM (inactive)	> 100 µM (inactive)	–	> 100 µM (inactive)	> 100 µM (inactive)	> 100 µM (inactive)	> 100 µM (inactive)	–	–	–	–
COC(=O)/C(=C\c1ccco1)P(=O)(OC)OC	39.9 µM (inactive)	65.8 µM (inactive)	> 100 µM (inactive)	62.4 µM (inactive)	–	54.3 µM (inactive)	89.5 µM (inactive)	43.3 µM (inactive)	48.3 µM (inactive)	35.2 µM (inactive)	19.9 µM (inactive)	2.49 µM (inactive)	30.5 µM (inactive)	41 µM (inactive)	44 µM (inactive)	73.6 µM (inactive)	16.4 µM (inactive)	25.2 µM (inactive)	34.8 µM (inactive)	26.6 µM (inactive)
COc1ccc2oc(S(=O)(=O)N3CC(CCl)c4ccc([N+](=O)[O-])cc43)cc2c1 (centres undefined)	0.179 µM (active)	0.073 µM (active)	0.105 µM (active)	0.0752 µM (active)	–	0.0746 µM (active)	0.0841 µM (active)	0.173 µM (active)	0.102 µM (active)	0.0933 µM (active)	0.155 µM (active)	0.0292 µM (active)	0.45 µM (active)	0.0955 µM (active)	0.0908 µM (active)	0.105 µM (active)	0.767 µM (active)	0.0388 µM (active)	0.0177 µM (active)	0.351 µM (active)
N#C/C(=C\c1ccc(O)c(O)c1)C(N)=O	39.2 µM (inactive)	36 µM (inactive)	58.1 µM (inactive)	–	> 100 µM (inactive)	> 100 µM (inactive)	43.9 µM (inactive)	53 µM (inactive)	38 µM (inactive)	17.7 µM (inactive)	–	9.2 µM (inactive)	5.78 µM (inactive)	33.9 µM (inactive)	23 µM (inactive)	71.4 µM (inactive)	50.6 µM (inactive)	95.9 µM (inactive)	–	–
CCCCNc1nc2ccccc2c2c1ncn2CC(C)C	> 100 µM (inactive)	> 100 µM (inactive)	> 100 µM (inactive)	> 100 µM (inactive)	–	> 100 µM (inactive)	> 100 µM (inactive)	> 100 µM (inactive)	> 100 µM (inactive)	> 100 µM (inactive)	> 100 µM (inactive)	> 100 µM (inactive)	> 100 µM (inactive)	> 100 µM (inactive)	> 100 µM (inactive)	> 100 µM (inactive)	> 100 µM (inactive)	> 100 µM (inactive)	> 100 µM (inactive)	> 100 µM (inactive)
CCOC(=O)N/N=C(/N)c1cccc([N+](=O)[O-])c1	> 100 µM (inactive)	> 100 µM (inactive)	> 100 µM (inactive)	> 100 µM (inactive)	–	> 100 µM (inactive)	> 100 µM (inactive)	> 100 µM (inactive)	> 100 µM (inactive)	80.2 µM (inactive)	> 100 µM (inactive)	> 100 µM (inactive)	> 100 µM (inactive)	> 100 µM (inactive)	> 100 µM (inactive)	> 100 µM (inactive)	> 100 µM (inactive)	> 100 µM (inactive)	> 100 µM (inactive)	> 100 µM (inactive)
